The values below come from PMC9437101, “Curcumin-based-fluorescent probes targeting ALDH1A3 as a promising tool for glioblastoma precision surgery and early diagnosis” (Communications Biology, 2022).

Where “and” joins values, the source holds several entries; their conditions need not be identical. Identical values can stand only once.

Data set [1] deals with patient-derived glioma cell 3060. As to the kind of experiment: Fluorescent microscopy of probe in cells. It is filed as cell-based, human. To be noted: 10 µM.
The subject of data set [2] is HEK293T cells. Kind of data set: Fluorescent microscopy of probe in cells. To be noted: 10 µM, 2 h (Fig. 5g). It is filed as cell-based, human. How it is done:
In total, 20,000 cells/ml of U87MG, HEK293T, hASTRO and 4T1 were seeded onto glass cover slips in 24-well plates. The cells incubated at 37 °C in a 5% CO2 atmosphere overnight. Cells were washed with 1 ml of PBS buffer two times, then a 10 μM solution of probes was added to each well for 2 h. For nuclei staining, 1 µg/ml of DAPI was added the last 15 min of treatment. The cover slips were removed and washed with PBS buffer, and fixed with 0.5 ml of 4% formaldehyde solution for 10 min. The cover slips were washed with 1 ml of PBS, then slides were prepared using Mounting Media (Merck Life Science). Fluorescence images were acquired using a Leica THUNDER Imager 3D Live Cell (Leica Microsystems, Wetzlar, Germany) microscope equipped with an S Fluor 40×/1.3 objective using the LAS X software.

The nature of data set [3]: Cell viability (MTT assay). Type of data set: cell-based, murine. To be noted: mouse, 4T1 mammary carcinoma cells. As for the experimental part: (§1) In total, 10 × 10^5 U87MG human glioblastoma, patient-derived glioma cells 3054 and 3060, HEK293T human embryonic kidney, 4T1 murine mammary carcinoma, human fetal astrocytes cell lines were plated in their respective medium and treated for 72 h with our fluorescent probe 10 and 11, solubilized in DMSO in a final concentration of […]. We treated controls with DMSO in the same final concentration and we compared the viability of each treatment to controls. The viability of cells was measured using the 3-(4,5-dimethylthiazol-2-yl)-2,5-diphenyltetrazolium assay (MTT assay)[23].
(Tetrazolium dyes change colour on reduction, which living cells bring about.)

Data set [4] has as its system 4T1 murine mammary carcinoma. As to the kind of experiment: Cell viability (MTT assay). It is filed as cell-based. To be noted: 10uM, 72 h. As for the experimental part:
as §1

For `COc1cc(/C=C/C(O)=C/C(=O)/C=C/c2ccc(OCc3cn(CCOc4ccc(C=O)cc4)nn3)c(OC)c2)ccc1O` [Probe 10], the “fluorescence in cells” value in data set [1] (2 h) is reported as “can determine fluorescence”. The “If ROI” value in data set [1] (3060, 2 h (Fig. 5g)) is 254.68 a.u. and 232.45 a.u. and 200.36 a.u. and 210.52 a.u. and 200.45 a.u; in data set [2] it was 64.441 a.u. and 43.961 a.u. and 59.771 a.u. and 72.091 a.u. and 46.461 a.u. The molecule further returned a viability at 72 h, 10 µM in data set [3] of 83.6%. Besides, the “% cell viability” value in data set [4] is 86.9788% and 85.5694% and 83.5736% and 83.6921% and 86.8788% and 85.6693% and 83.8736%.

For orientation: viability means a read-out of living cells in per cent, often relative to untreated cells. Read a low viability as more harm to the cells.
